Measured values published in ChEMBL document CHEMBL1142267, “Optimization of alpha-ketooxazole inhibitors of fatty acid amide hydrolase” (J Med Chem, 2008).

Assays:
[1] = Selectivity for rat recombinant FAAH over TGH
[2] = Selectivity for rat recombinant FAAH over KIAA1363
[3] = biological target: T1, Neutral cholesterol ester hydrolase 1 (Homo sapiens, UniProt Q6PIU2); assay: Inhibition of KIAA1363
T1 sequence (Q6PIU2 whole entry): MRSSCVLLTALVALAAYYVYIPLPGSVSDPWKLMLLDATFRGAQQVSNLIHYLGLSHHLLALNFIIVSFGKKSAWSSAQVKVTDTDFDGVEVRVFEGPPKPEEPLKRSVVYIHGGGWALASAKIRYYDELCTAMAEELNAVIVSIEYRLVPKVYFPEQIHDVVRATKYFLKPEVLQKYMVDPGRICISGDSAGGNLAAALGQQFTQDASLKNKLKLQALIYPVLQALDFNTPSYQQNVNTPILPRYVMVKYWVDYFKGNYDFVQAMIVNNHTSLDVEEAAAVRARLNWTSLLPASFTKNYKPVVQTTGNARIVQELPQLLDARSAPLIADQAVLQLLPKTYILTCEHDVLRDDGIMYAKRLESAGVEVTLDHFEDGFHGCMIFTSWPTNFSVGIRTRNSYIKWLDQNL

Liver carboxylesterase 1 = biological target: T2, Liver carboxylesterase 1 (Homo sapiens, UniProt P23141)
T2 sequence (P23141 whole entry): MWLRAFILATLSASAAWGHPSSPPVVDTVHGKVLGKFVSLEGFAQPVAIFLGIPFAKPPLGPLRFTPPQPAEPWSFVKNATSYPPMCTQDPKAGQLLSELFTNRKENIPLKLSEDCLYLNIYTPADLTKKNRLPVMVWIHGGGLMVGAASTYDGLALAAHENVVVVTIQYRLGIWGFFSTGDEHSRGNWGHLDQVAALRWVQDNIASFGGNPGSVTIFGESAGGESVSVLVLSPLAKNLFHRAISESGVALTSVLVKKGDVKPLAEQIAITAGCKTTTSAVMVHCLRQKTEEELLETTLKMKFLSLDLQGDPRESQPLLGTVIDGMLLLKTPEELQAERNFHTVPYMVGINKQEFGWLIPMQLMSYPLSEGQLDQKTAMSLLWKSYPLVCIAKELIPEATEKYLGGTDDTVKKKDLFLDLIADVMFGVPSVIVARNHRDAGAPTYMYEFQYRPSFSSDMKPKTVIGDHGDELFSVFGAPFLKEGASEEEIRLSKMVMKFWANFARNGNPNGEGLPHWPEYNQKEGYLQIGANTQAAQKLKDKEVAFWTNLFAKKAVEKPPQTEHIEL

[4] = biological target: T3, Fatty-acid amide hydrolase 1 (Rattus norvegicus, UniProt P97612); assay: Inhibition of rat recombinant FAAH expressed in Escherichia coli
T3 sequence (P97612 whole entry): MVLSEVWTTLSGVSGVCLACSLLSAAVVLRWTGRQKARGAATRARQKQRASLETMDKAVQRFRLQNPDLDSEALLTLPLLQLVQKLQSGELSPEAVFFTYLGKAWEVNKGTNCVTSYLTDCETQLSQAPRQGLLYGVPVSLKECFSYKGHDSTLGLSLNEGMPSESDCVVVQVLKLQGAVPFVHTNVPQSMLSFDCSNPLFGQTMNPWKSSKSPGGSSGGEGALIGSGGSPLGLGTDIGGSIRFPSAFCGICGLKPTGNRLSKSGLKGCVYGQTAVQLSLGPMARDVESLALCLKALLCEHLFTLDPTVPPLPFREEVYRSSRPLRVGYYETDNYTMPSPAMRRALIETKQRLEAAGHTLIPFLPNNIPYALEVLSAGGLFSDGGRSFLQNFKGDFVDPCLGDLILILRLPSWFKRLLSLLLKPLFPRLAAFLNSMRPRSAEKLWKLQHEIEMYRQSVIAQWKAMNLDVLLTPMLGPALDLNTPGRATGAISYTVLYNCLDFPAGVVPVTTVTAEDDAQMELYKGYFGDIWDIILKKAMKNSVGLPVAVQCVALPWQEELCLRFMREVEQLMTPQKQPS

In the case of O=C(O)c1cccc(-c2cnc(C(=O)CCc3ccc(COc4ccccc4)cc3)o2)n1, the Ratio IC50 [1] is reported as 650, the Ratio IC50 [2] is reported as > 2500 and the IC50 [3] is reported as > 100000 nM. For the same compound, the IC50 (Liver carboxylesterase 1) was 26000 nM and the IC50 [4] was 40 nM.
CN1CCN(Cc2ccc(-c3ccc(CCC(=O)c4ncc(-c5cccc(C(=O)O)n5)o4)cc3)cc2)CC1 gave a Ki [4] of 1200 nM.
O=C(O)c1cccc(-c2cnc(C(=O)CCc3ccc(-c4ccc(CN5CCCC5)cc4)cc3)o2)n1 gave a Ki [4] of 130 nM.
Compound COC(=O)c1cnc(C(=O)CCc2ccc(Oc3ccccc3)cc2)o1 has a Ki [4] of 1.7 nM.
In the case of NC(=O)c1ccc(-c2cnc(CCCc3ccc(-c4ccccc4)cc3)o2)nc1, the Ki [4] is reported as 30000 nM.
For CN(C)C(=O)c1cnc(C(=O)CCc2ccc(Oc3ccccc3)cc2)o1, the Ki [4] was 5.4 nM.
N#Cc1cccc(-c2cnc(C(=O)CCc3ccc(-c4ccccc4)cc3)o2)n1 gave a Ki [4] of 2.9 nM.
In the case of O=C(O)c1cnc(C(=O)CCc2ccc(-c3ccccc3)cc2)o1, the Ratio IC50 [1] is reported as 850, the Ratio IC50 [2] is reported as > 5000 and the IC50 [3] is reported as > 100000 nM. It also gave an IC50 (Liver carboxylesterase 1) of 17000 nM, an IC50 [4] of 20 nM and a Ki [4] of 10 nM.
With O=C(O)c1cnc(C(=O)CCc2ccc(Oc3ccccc3)cc2)o1 the Ratio IC50 [1] was 30, the Ratio IC50 [2] was > 1250 and the IC50 [3] was > 100000 nM. The IC50 (Liver carboxylesterase 1) was 2400 nM, the IC50 [4] was 80 nM and the Ki [4] was 41 nM.
For NC(=O)c1ccc(-c2cnc(C(O)CCc3ccc(-c4ccccc4)cc3)o2)nc1 (stereo not drawn), the Ki [4] was > 1000 nM.
For O=C(CCc1ccc(-c2ccccc2)cc1)c1ncc(-c2cccc(-c3nnn[nH]3)n2)o1, the Ratio IC50 [1] was 70, the Ratio IC50 [2] was > 1000 and the IC50 [3] was > 100000 nM. The IC50 (Liver carboxylesterase 1) was 7000 nM, the IC50 [4] was 100 nM and the Ki [4] was 25 nM.
For CS(=O)(=O)c1cnc(C(=O)CCc2ccc(-c3ccccc3)cc2)o1, the Ki [4] was 1.2 nM.
With O=C(CCc1ccc(COc2ccccc2)cc1)c1ncc(I)o1 the Ki [4] was 4 nM.
CNC(=O)c1cnc(C(=O)CCc2ccc(COc3ccccc3)cc2)o1 gave a Ki [4] of 3.6 nM.
For CN(C)C(=O)c1cnc(C(=O)CCc2ccc(COc3ccccc3)cc2)o1, the Ki [4] was 6.7 nM.
CNC(=O)c1cnc(C(=O)CCc2ccc(Oc3ccccc3)cc2)o1 showed a Ki [4] of 11 nM.
COC(=O)c1cccc(-c2cnc(C(=O)CCc3ccc(OC4CCN(C(=O)OC(C)(C)C)CC4)cc3)o2)n1 gave a Ki [4] of 32 nM.
For COC(=O)c1cccc(-c2cnc(C(=O)CCc3ccc(OC4CCNCC4)cc3)o2)n1, the Ki [4] was 4500 nM.
Compound NC(=O)c1cnc(C(=O)CCc2ccc(-c3ccccc3)cc2)o1 has a Ki [4] of 3.5 nM.
With NC(=O)c1ccc(-c2cnc(C(=O)CCc3ccc(-c4ccccc4)cc3)o2)nc1 the Ki [4] was 1.3 nM.
COC(=O)c1ccc(-c2cnc(CCCc3ccc(-c4ccccc4)cc3)o2)nc1 gave a Ki [4] of 50000 nM.
For NC(=O)c1cccc(-c2cnc(CCCc3ccc(-c4ccccc4)cc3)o2)n1, the Ki [4] was 4000 nM.
Compound NC(=O)c1cccc(-c2cnc(C(O)CCc3ccc(-c4ccccc4)cc3)o2)n1 (stereo not drawn) has a Ki [4] of 20000 nM.
N#Cc1cccc(-c2cnc(C(=O)CCc3ccc(COc4ccccc4)cc3)o2)n1 showed a Ki [4] of 0.56 nM.
Compound O=C(O)c1cccc(-c2cnc(C(=O)CCc3ccc(OC4CCNCC4)cc3)o2)n1 has a Ki [4] of 11000 nM.
For CSc1cnc(C(=O)CCc2ccc(-c3ccccc3)cc2)o1, the Ki [4] was 3 nM.
In the case of COC(=O)c1ccc(-c2cnc(C(O)CCc3ccc(-c4ccccc4)cc3)o2)nc1 (stereo not drawn), the Ki [4] is reported as 1100 nM.
O=C(O)c1cccc(-c2cnc(C(O)CCc3ccc(-c4ccccc4)cc3)o2)n1 (stereo not drawn) showed a Ki [4] of 1100 nM.
With O=C(O)c1ccc(-c2cnc(CCCc3ccc(-c4ccccc4)cc3)o2)nc1 the Ki [4] was 20000 nM.
